Assays:
conscious rat = assay: Antihypertensive evaluation (AHP3): direct monitoring of aortic blood pressure and heart rate; assay type: in vivo
Text: This test procedure is described in the following paragraphs. A Method for the Direct Monitoring of Aortic Blood Pressure and Heart Rate from Conscious Rats The continuous monitoring of pulsatile blood pressure (BP) from unrestrained conscious rats surgically equipped with polyethylene cannulas was accomplished by means of a computer assisted data capture scheme (CADCS). The basic elements of the methodology are the cannulation procedure and the CADCS. Cannulation Procedure: Rats were anesthetized with Telazol (1:1 tiletamine HCI and zolazepam HCI); 20-40 mg/kg IM and the descending aorta exposed via a midline incision. Cannulas fabricated from polyethylene tubing were inserted into the aorta via an undersized puncture hole below the renal arteries. […] The cannulas, consisting of a PE100 (0.86 mm ID) body and a PE50 (0.58 mm ID) tip, were attached to a trocar, inserted through the psoas muscle, and passed subcutaneously along the midline of the back and externalized between the ears. The cannulas were anchored to the posas muscle and between the scaluale (3-0 green braided suture). The midline incision was closed in two steps (muscle first, skin second) using continuous over-and over sutures (4-0 chronic). Each rat was then given penicillin 30,000 units subcutaneously (Penicillin G Procaine Sterile Suspension). The rats were fitted with a harness-spring-swivel assembly designed to protect the cannula and to provide the rat relative freedom of movement. […] While on test, each rat received a continuous slow infusion of heparinized saline solution (approximately 400 I or 40 units of heparin per 24 hour period) to prevent clot formation. […] The data were first stored on the data concentrator disk and then transferred to a magnetic tape for analysis and report generation by the main research computer. The overall scheme involved modulating the primary signal from the pressure transducer, generating the primary data set of the one-minute values for systolic, diastolic, and mean blood pressures and heart rate by the in-lab microcomputer and the storage, analysis, and report generation by the main research computer. The transducers were connected to analog signal conditioning mocules. The modules provided a regulated excitation voltage for the transducers, amplification as required to interface the microprocessors and an active low pass filter to compensate for the pressure wave form distortion produced by the flexible, fluid filled, narrow cannula. […] The microcomputer controlled the sequential acqusition of data from the modular interface units through an internal synchronous time-of-day clock/time base generator. […] The microcomputer processed each blood pressure sample as it was received to produce "running average" values for heart rate, and mean, systolic and diastolic blood pressures.

adenosine A1 receptor = target: T1, adenosine A1 receptor (Rattus norvegicus, UniProt P25099); assay: Adenosine Receptor Binding - A1 Receptor Affinity (RBA1); settings: [3H]-CHA, rat whole brain membranes; read-out: RBA-1
T1 construct: Whole brain minus cerebellum and brainstem from male Long Evans rats (150-200 g) was homogenized; from tissue; host or cells: rat whole brain minus cerebellum and brainstem, membrane homogenate
T1 sequence (P25099 1-326): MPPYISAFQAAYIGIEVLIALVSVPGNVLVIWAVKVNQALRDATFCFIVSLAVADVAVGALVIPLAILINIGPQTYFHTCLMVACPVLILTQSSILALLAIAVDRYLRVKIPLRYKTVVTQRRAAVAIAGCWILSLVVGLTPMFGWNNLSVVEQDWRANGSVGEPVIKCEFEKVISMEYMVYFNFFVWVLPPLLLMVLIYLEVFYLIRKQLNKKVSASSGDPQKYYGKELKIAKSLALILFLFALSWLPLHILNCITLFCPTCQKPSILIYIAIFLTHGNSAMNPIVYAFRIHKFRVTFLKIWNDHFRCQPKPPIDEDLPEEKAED
Protocol: Adenosine Receptor Binding - A1 Receptor Affinity (RBA1)
Whole brain minus cerebellum and brainstem from male Long Evans rats (150-200 g) was homogenized in 30 volumes of ice-cold 0.05 M Tris-HCI buffer pH 7.7 using a Brinkman Polytron PT-10 (setting number 6 for 20 seconds) and centrifuged for ten minutes at 20,000 x g (Sorvall RC-2), 4°C. The supernatant was discarded, and the pellet was resuspended and centrifuged as before. The pellet was resuspended in 20 ml Tris-HCI buffer containing two International Units/ml of adenosine deaminase (Sigma type III from calf intestinal mucosa), incubated at 37°C for 30 minutes, then subsequently at 0°C for ten minutes. The homogenate was again centrifuged, and the final pellet was resuspended in ice-cold 0.05 M Tris-HCI buffer pH 7.7 to a concentration of 20 mg/ml original wet tissue weight and used immediately.
Tissue homogenate (10 mg/ml) was incubated in 0.05 M Tris-HCI buffer pH 7.7 containing 1.0 nM [^3H]-N^6-cyclohexyladenosine (^3H]-CHA) with or without test agents in triplicate for one hour at 25°C. Incubation volume was 2 ml. Unbound [^3H]-CHA was separated by rapid filtration under reduced pressure through Whatman glass fiber (GF/B) filters. The filters were rinsed three times with 5 ml of ice cold 0.05 M Tris-HCI buffer pH 7.7. The radio-labeled ligand retained on the filter was measured by liquid scintillation spectrophotometry after shaking the filters for one hour or longer on a mechanical shaker in 10 ml of Beckman Ready Solv HP scintillation cocktail.
Nonspecific binding was defined as the binding which occurred in the presence of 1 mM thophylline. […] The Scatchard plot was calculated by linear regression of the line obtained by plotting the amount of radioligand bound (pmoles/gram of tissue) versus [formula] Since the amount of radioligand bound was a small fraction of the total amount added, free radioligand was defined as the concentration (nM) of radioligand added to the incubation mixture. The Hill coefficient was calculated by linear regression of the line obtained by plotting the log of the bound radioligand vs the log of the [formula] The maximal number of binding sites (Bmax) was calculated from the Scatchard plot.

Row | SMILES | IC50 (adenosine A1 receptor) [nM] | other results
1 | CC1CCc2ccccc2C1Nc1ncnc2c1ncn2[C@@H]1O[C@H](CO)[C@@H](O)[C@H]1O (stereo partly shown) [Example 4, N^6-[1-(2-Methyl)-tetralinyl]-adenosine] | 19 | 
2 | CC(=O)Oc1ccccc1C(=O)OC[C@H]1O[C@@H](n2cnc3c(NC4CCCc5ccccc54)ncnc32)[C@H](O)[C@@H]1O (stereo partly shown) [Example 14, N^6-(1-tetralinyl)-5'-O-(O-acetylsalicoyl)adenosine] | 8220 | 
3 | CC(=O)OC[C@H]1O[C@@H](n2cnc3c(NC4CCCc5ccccc54)ncnc32)[C@H](O)[C@@H]1O (stereo partly shown) [Example 15, N^6-(1-tetralinyl)-5'-acetyl-adenosine] | 500 | 
4 | OC[C@H]1O[C@@H](n2cnc3c(NC4CCCc5ccc(O)cc54)ncnc32)[C@H](O)[C@@H]1O (stereo partly shown) [Example 17] | 71 | 
5 | Cc1cc(C)c2c(c1)C(Nc1ncnc3c1ncn3[C@@H]1O[C@H](CO)[C@@H](O)[C@H]1O)CCC2 (stereo partly shown) [Example 18, N^6-[1-(5,7-dimethyl)-tetralinya]-adenosine] | 20 | 
6 | OC[C@H]1O[C@@H](n2cnc3c(NCC4CCc5ccccc54)ncnc32)[C@H](O)[C@@H]1O (stereo partly shown) [Example 21, N^6-[2,3-dihydro-1H-inden-1-yl]methyladenosine] | 9 | 
7 | OC[C@H]1O[C@@H](n2cnc3c(NCC4=CCc5ccccc54)ncnc32)[C@H](O)[C@@H]1O [Example 22, N^6-[1H-inden-3-yl]methyladenosine] | 57 | 
8 | OC[C@H]1O[C@@H](n2cnc3c(NCC4(O)CCCc5ccccc54)ncnc32)[C@H](O)[C@@H]1O (stereo partly shown) [Example 23, N^6-[1-hydroxy-1-tetralinyl]methyl adenosine] | 108 | 
9 | OC[C@H]1O[C@@H](n2cnc3c(NCC4=CCCc5ccccc54)ncnc32)[C@H](O)[C@@H]1O [Example 24, N^6-[3,4-dihydro-1-naphthalenyl]methyladenosine] | 159 | 
10 | OC[C@H]1O[C@@H](n2cnc3c(NCC4(O)CCc5ccccc54)ncnc32)[C@H](O)[C@@H]1O (stereo partly shown) [Example 25, N^6-[2,3-dihydro-1-hydroxy-1H-inden-1-yl]methyladenosine] | 120 | 
11 | OC[C@H]1O[C@@H](n2cnc3c(NCC4=CCCCc5ccccc54)ncnc32)[C@H](O)[C@@H]1O [Example 26, N^6-(1-benzocycloheptenyl)methyladenosine] | 713 | 
12 | OC[C@H]1O[C@@H](n2cnc3c(NCC4(O)CCCCc5ccccc54)ncnc32)[C@H](O)[C@@H]1O (stereo partly shown) [Example 27, N^6-(1-hydroxy-1-benzocycloheptyl]methyladenosine] | 445 | 
13 | OC[C@H]1O[C@@H](n2cnc3c(NCC4CCCCc5ccccc54)ncnc32)[C@H](O)[C@@H]1O (stereo partly shown) [Example 28, N^6-(1-benzocycloheptyl)methyladenosine] | 208 | 

Now from value to compound, other results behind:

Row | IC50 (adenosine A1 receptor) [nM] | SMILES | other results
14 | 40 | COc1ccc2c(c1)C(Nc1ncnc3c1ncn3[C@@H]1O[C@H](CO)[C@@H](O)[C@H]1O)CCC2 (single isomer, unassigned) [Example 5, N6-[1-(7-Methoxy)-tetralinyl]-adenosine] | change in HR (Heart Rate) (conscious rat; 3 mg/kg, Hour 1, conscious rat): 0%
15 | 21 | COc1ccc2c(c1)C(Nc1ncnc3c1ncn3[C@@H]1O[C@H](CO)[C@@H](O)[C@H]1O)CCC2 (single isomer, unassigned) [Example 8] | 
16 | 59 | OC[C@H]1O[C@@H](n2cnc3c(NC4CCCc5ccccc54)ncnc32)C(O)[C@@H]1O (stereo in doubt) [Example 1, (R,S)-N^6-[1-Tetralinyl]-adenosine] | change in HR (Heart Rate) (conscious rat; 10 mg/kg, Hour 9, conscious rat): 0%
17 | 44 | OC[C@H]1O[C@@H](n2cnc3c(NC4CCCc5ccccc54)ncnc32)[C@H](O)[C@@H]1O (stereo partly drawn) [Example 2, (R)-N^6-[1-Tetralinyl]-adenosine] | 
18 | 403 | OC[C@H]1O[C@H](n2cnc3c(NC4CCCc5ccccc54)ncnc32)[C@H](O)[C@@H]1O (stereo partly drawn) [Example 3, (S)-N^6-[1-Tetralinyl]-adenosine] | change in HR (Heart Rate) (conscious rat; 10 mg/kg, Hour 5, conscious rat): 0%
19 | 126 | COc1ccc2c(c1)CCCC2Nc1ncnc2c1ncn2[C@@H]1O[C@H](CO)[C@@H](O)[C@H]1O (stereo partly shown) [Example 6, N^6-[1-(6-Methoxy)-tetralinyl]-adenosine] | 
20 | 42 | COc1cccc2c1CCCC2Nc1ncnc2c1ncn2[C@@H]1O[C@H](CO)[C@@H](O)[C@H]1O (stereo partly shown) [Example 7, N^6-[5-Methoxy-1-aminotetralin]-adenosine] | 
21 | 4550 | COc1ccc2c(c1)C(Nc1ncnc3c1ncn3[C@H]1O[C@H](CO)[C@@H](O)[C@H]1O)CCC2 (stereo partly drawn) [Example 9, (S)-N^6-(7-methoxy-1-tetralinyl)-adenosine] | change in MAP (Mean Arterial Pressure) (conscious rat; 3 mg/kg, Hour 5, conscious rat): 9%
22 | 19 | COc1cccc2c1CCC[C@@H]2Nc1ncnc2c1ncn2[C@@H]1O[C@H](CO)[C@@H](O)[C@H]1O [Example 10, (S)-N^6-[5-methoxy-1-aminotetralin]-adenosine] | 
23 | 36 | OC[C@H]1O[C@@H](n2cnc3c(NC4CCCc5c(O)cccc54)ncnc32)[C@H](O)[C@@H]1O (stereo partly shown) [Example 16, N^6-[1-(5-hydroxy)-tetralinyl]-adenosine] | change in HR (Heart Rate) (conscious rat; 3 mg/kg, Hour 9, conscious rat): 0%
